Test: log P by HPLC on a reversed-phase column (C18), EEC Directive 79/831 Annex V.A8
Assay type: physicochemical
Protocol: The stated log P values were determined in accordance with EEC Directive 79/831 Annex V.A8 by HPLC (High Performance Liquid Chromatography) using a reversed-phase column (C18).

[1] = HPLC, reversed-phase C18, mobile phase with formic acid
[2] = HCOOH, Table 4, compounds of formula I-A-Q4

N#Cc1cc(-n2nc(C(F)(F)F)c(-c3cc(Cl)cc(Cl)c3)c2N)ccc1-n1cc(Cl)cn1 [I-A-Q1-084]
log P (HCOOH) [1]: I-A-Q1-084: log P (HCOOH): 4.70

Cc1cc(C)cc(-c2c(C(F)(F)F)nn(-c3ccc(Cl)cn3)c2N)c1 [I-A-Q4-022]
log P (HCOOH) [2]: I-A-Q4-022: log P (HCOOH): 5.22

Cc1cc(-n2nc(C(F)(F)F)c(-c3cc(Cl)cc(Cl)c3)c2N)ccc1C(=O)NC(CC(F)(F)F)C(F)(F)F (stereo not drawn) [I-A-Q2-217]
log P (HCOOH) (HCOOH): I-A-Q2-217: log P (HCOOH): 4.70

Cc1cc(-n2nc(C(F)(F)F)c(-c3cccc(Br)c3)c2N)ccc1C(=O)NC(C)c1ccccn1 (stereo not drawn) [I-A-Q2-418]
log P (HCOOH) (HCOOH): I-A-Q2-418: log P (HCOOH): 3.22

Cc1cc(-n2nc(C)c(-c3ccc(F)cc3F)c2N)ccc1C(=O)NCc1ccccn1 [I-A-Q2-370]
log P (HCOOH) (HCOOH): I-A-Q2-370: log P (HCOOH): 1.64

Nc1c(-c2ccc(Br)cc2)c(C(F)(F)F)nn1-c1ccc(Cl)cn1 [I-A-Q4-042]
log P (HCOOH) [2]: I-A-Q4-042: log P (HCOOH): 5.22

CN(C)c1cc(-n2nc(C(F)(F)F)c(-c3cc(Cl)cc(Cl)c3)c2N)ccc1C(=O)O [I-A-Q4-121]
log P (HCOOH) [2]: I-A-Q4-121: log P (HCOOH): 3.07

CC(NC(=O)c1ccc(-n2nc(C(F)(F)F)c(-c3cc(F)cc(Cl)c3)c2N)cc1)C(F)(F)F (stereo not drawn) [I-A-Q2-084]
log P (HCOOH) (HCOOH): I-A-Q2-084: log P (HCOOH): 3.89

N#Cc1cc(-n2nc(C(F)(F)F)c(-c3cc(Cl)cc(Cl)c3)c2N)ccc1-n1cncn1 [I-A-Q1-024]
log P (HCOOH) [1]: I-A-Q1-024: log P (HCOOH): 3.90

CC(NC(=O)c1ccc(-n2nc(C(F)(F)F)c(-c3ccc(Cl)c(F)c3)c2N)cc1)C(F)(F)F (stereo not drawn) [I-A-Q2-169]
log P (HCOOH) (HCOOH): I-A-Q2-169: log P (HCOOH): 3.78

COc1cc(-c2c(C(F)(F)F)nn(-c3ccc(C(=O)NCC(F)(F)C(F)F)c(C)c3)c2N)cc(Cl)c1OC [I-A-Q2-292]
log P (HCOOH) (HCOOH): I-A-Q2-292: log P (HCOOH): 3.53

CSc1cc(-n2nc(C(C)(C)C)c(-c3cc(Cl)cc(Cl)c3)c2N)ccc1C(=O)NCc1ccccn1 [I-A-Q2-408]
log P (HCOOH) (HCOOH): I-A-Q2-408: log P (HCOOH): 3.68

CNC(=O)c1ccc(-n2nc(C(C)C)c(-c3ccc(Cl)cc3)c2N)cc1 [I-A-Q2-074]
log P (HCOOH) (HCOOH): I-A-Q2-074: log P (HCOOH): 2.76

Cc1cc(-n2nc(-c3ccccc3)c(-c3ccc(Cl)cc3)c2N)ccc1C(=O)NCC(F)(F)C(F)F [I-A-Q2-337]
log P (HCOOH) (HCOOH): I-A-Q2-337: log P (HCOOH): 3.80

Cc1cc(-n2nc(C(F)(F)F)c(-c3cc(Cl)cc(Cl)c3)c2N)ccc1C(=O)NCc1ccc(Cl)nc1 [I-A-Q2-219]
log P (HCOOH) (HCOOH): I-A-Q2-219: log P (HCOOH): 4.05

Nc1[nH]nc(C(F)(F)F)c1-c1cc(Cl)cc(Cl)c1 [IX-021]
log P (HCOOH) (HCOOH, compounds of the formula (IX), Table 11): IX-021: log P (HCOOH): 2.91

Nc1c(-c2cc(Cl)cc(Cl)c2)c(C(F)(F)F)nn1-c1ccc(C(=O)NCc2cccnc2)cn1 [I-A-Q2-107]
log P (HCOOH) (HCOOH): I-A-Q2-107: log P (HCOOH): 2.95

Cc1nn(-c2ccc(-n3cncn3)c(C#N)c2)c(N)c1-c1cc(F)ccc1F [I-A-Q1-061]
log P (HCOOH) [1]: I-A-Q1-061: log P (HCOOH): 2.29

Cc1cc(-n2nc(C(F)(F)F)c(-c3cc(Cl)cc(Cl)c3)c2N)ccc1C(=O)NCC(C)O (stereo not drawn) [I-A-Q2-262]
log P (HCOOH) (HCOOH): I-A-Q2-262: log P (HCOOH): 3.28

COC(=O)CC(NC(=O)c1ccc(-n2nc(C(F)(F)F)c(-c3cc(Cl)cc(Cl)c3)c2N)cc1C)c1ccccn1 (stereo not drawn) [I-A-Q2-057]
log P (HCOOH) (HCOOH): I-A-Q2-057: log P (HCOOH): 2.72

Cc1nc(CNC(=O)c2ccc(-n3nc(C(F)(F)F)c(-c4cc(Cl)cc(Cl)c4)c3N)cc2C)c(C)o1 [I-A-Q2-251]
log P (HCOOH) (HCOOH): I-A-Q2-251: log P (HCOOH): 3.84

Cc1cc(-n2nc(C(F)F)c(-c3ccc(Cl)cc3)c2N)ccc1C(=O)NCc1ccccn1 [I-A-Q2-362]
log P (HCOOH) (HCOOH): I-A-Q2-362: log P (HCOOH): 2.27

Cc1cc(-n2nc(C(F)(F)F)c(-c3ccc(C#N)cc3)c2N)ccc1C(=O)NCC(F)(F)C(F)F [I-A-Q2-306]
log P (HCOOH) (HCOOH): I-A-Q2-306: log P (HCOOH): 3.24

Cc1cc(-n2nc(C(F)(F)F)c(-c3cc(Cl)cc(Cl)c3)c2N)ccc1C(=O)N(C)Cc1cccnc1 [I-A-Q2-209]
log P (HCOOH) (HCOOH): I-A-Q2-209: log P (HCOOH): 3.02

Cc1cccc(CNC(=O)c2ccc(-n3nc(C(F)(F)F)c(-c4cc(Cl)cc(Cl)c4)c3N)cc2C)n1 [I-A-Q2-042]
log P (HCOOH) (HCOOH): I-A-Q2-042: log P (HCOOH): 2.93

Cc1cc(-n2nc(C(F)(F)F)c(-c3ccc(Cl)cc3)c2N)ccc1C(=O)NCc1ccccn1 [I-A-Q2-345]
log P (HCOOH) (HCOOH): I-A-Q2-345: log P (HCOOH): 2.69

CC(NC(=O)c1ccc(-n2nc(C(F)(F)F)c(-c3cc(Cl)cc(Cl)c3)c2N)nc1)c1ccccc1 (stereo not drawn) [I-A-Q2-103]
log P (HCOOH) (HCOOH): I-A-Q2-103: log P (HCOOH): 5.19

Cc1cc(-n2nc(C(F)(F)F)c(-c3cc(Cl)cc(Cl)c3)c2N)ccc1C(=O)N(C)C(C)c1ccncc1 (stereo not drawn) [I-A-Q2-211]
log P (HCOOH) (HCOOH): I-A-Q2-211: log P (HCOOH): 2.89

Cc1nn(-c2ccc(Cl)cn2)c(N)c1-c1ccccc1Cl [I-A-Q4-032]
log P (HCOOH) [2]: I-A-Q4-032: log P (HCOOH): 3.89

N#Cc1cc(-n2nc(C(F)(F)Oc3ccc(Cl)cc3)c(-c3cc(Cl)cc(C(F)(F)F)c3)c2N)ccc1-n1cncn1 [I-A-Q1-071]
log P (HCOOH) [1]: I-A-Q1-071: log P (HCOOH): 4.84

Nc1c(-c2c(F)cc(F)cc2F)c(C(F)(F)F)nn1-c1ccc(Cl)cn1 [I-A-Q4-046]
log P (HCOOH) [2]: I-A-Q4-046: log P (HCOOH): 4.46

N#Cc1cc(-n2nc(C(F)(F)F)c(-c3cc(Cl)cc(Cl)c3)c2N)ccc1-n1nc[nH]c1=O [I-A-Q1-026]
log P (HCOOH) [1]: I-A-Q1-026: log P (HCOOH): 3.37

CC(C)(CC(F)(F)F)NC(=O)c1ccc(-n2nc(C(F)(F)F)c(-c3cc(Cl)cc(Cl)c3)c2N)nc1 [I-A-Q2-099]
log P (HCOOH) (HCOOH): I-A-Q2-099: log P (HCOOH): 5.42

Cc1cc(-n2nc(C)c(-c3c(Cl)cccc3Cl)c2N)ccc1C(=O)NCC(F)(F)C(F)F [I-A-Q2-336]
log P (HCOOH) (HCOOH): I-A-Q2-336: log P (HCOOH): 2.76

Cc1cc(-n2nc(C(F)F)c(-c3ccc(F)cc3F)c2N)ccc1C(=O)NCc1ccccn1 [I-A-Q2-361]
log P (HCOOH) (HCOOH): I-A-Q2-361: log P (HCOOH): 1.91

Nc1c(-c2cc(F)c(F)c(F)c2)c(C(F)(F)F)nn1-c1ccc(C(=O)O)cc1 [I-A-Q4-099]
log P (HCOOH) [2]: I-A-Q4-099: log P (HCOOH): 3.32

Cc1nn(-c2ccc(Cl)cn2)c(N)c1-c1c(Cl)cccc1Cl [I-A-Q4-029]
log P (HCOOH) [2]: I-A-Q4-029: log P (HCOOH): 4.05

COC(=O)c1ccc(-n2nc(C(F)(F)F)c(Br)c2N)cc1C [XI-A-082]
log P (HCOOH) (HCOOH): XI-A-082: log P (HCOOH): 3.52

Nc1c(-c2cc(Cl)cc(Cl)c2)c(C(F)(F)F)nn1-c1ccc(C(=O)NCc2ccccc2)cc1 [I-A-Q2-152]
log P (HCOOH) (HCOOH): I-A-Q2-152: log P (HCOOH): 4.45

CC(NC(=O)c1ccc(-n2nc(C(F)(F)F)c(-c3ccccc3Cl)c2N)cc1)C(F)(F)F (stereo not drawn) [I-A-Q2-079]
log P (HCOOH) (HCOOH): I-A-Q2-079: log P (HCOOH): 3.37

Nc1c(-c2cccc(Cl)c2)c(C(F)(F)F)nn1-c1ccc(C(=O)NC2CC2)cc1 [I-A-Q2-091]
log P (HCOOH) (HCOOH): I-A-Q2-091: log P (HCOOH): 3.09

N#Cc1cc(-n2nc(C(F)(F)F)c(-c3c(F)cc(F)cc3F)c2N)ccc1-n1cncn1 [I-A-Q1-034]
log P (HCOOH) [1]: I-A-Q1-034: log P (HCOOH): 3.10

Cc1cc(-n2nc(C(F)(F)F)c(-c3ccc(Cl)c(Cl)c3)c2N)ccc1C(=O)NCC(F)(F)C(F)F [I-A-Q2-304]
log P (HCOOH) (HCOOH): I-A-Q2-304: log P (HCOOH): 4.00

Nc1c(-c2cccc(Cl)c2)c(C(F)(F)F)nn1-c1ccc(C(=O)O)cc1 [I-A-Q4-096]
log P (HCOOH) [2]: I-A-Q4-096: log P (HCOOH): 3.20

Cc1cc(-n2nc(C)c(-c3cccc(Cl)c3)c2N)ccc1C(=O)NCc1ccccn1 [I-A-Q2-371]
log P (HCOOH) (HCOOH): I-A-Q2-371: log P (HCOOH): 1.88

Cc1cc(-n2nc(C(F)(F)F)c(-c3cc(Cl)cc(Cl)c3)c2N)ccc1C(=O)NC(CC(C)C)C(F)(F)F (stereo not drawn) [I-A-Q2-198]
log P (HCOOH) (HCOOH): I-A-Q2-198: log P (HCOOH): 5.40

Nc1c(-c2ccc(F)c(F)c2)c(C(F)(F)F)nn1-c1ccc(Cl)cn1 [I-A-Q4-050]
log P (HCOOH) [2]: I-A-Q4-050: log P (HCOOH): 4.64

CNc1cc(-n2nc(C(F)(F)F)c(-c3cc(Cl)cc(Cl)c3)c2N)ccc1C(=O)O [I-A-Q4-120]
log P (HCOOH) [2]: I-A-Q4-120: log P (HCOOH): 4.11

COC(=O)c1ccc(-n2nc(C(F)(F)F)c(-c3cc(Cl)cc(Cl)c3)c2N)cc1SC [I-A-Q4-118]
log P (HCOOH) [2]: I-A-Q4-118: log P (HCOOH): 4.93

Cc1cc(-n2nc(C(F)(F)F)c(-c3cc(Cl)cc(Cl)c3)c2N)ccc1C(=O)NC(c1ccccn1)C(F)(F)F (stereo not drawn) [I-A-Q2-054]
log P (HCOOH) (HCOOH): I-A-Q2-054: log P (HCOOH): 2.31

Cc1nn(-c2ccc(-n3cncn3)c(C#N)c2)c(N)c1-c1ccccc1 [I-A-Q1-066]
log P (HCOOH) [1]: I-A-Q1-066: log P (HCOOH): 2.14

Cc1cc(-n2nc(C(F)(F)F)c(-c3cc(Cl)cc(Cl)c3)c2N)ccc1C(=O)NCC(F)(F)C(F)(F)C(F)(F)C(F)(F)C(F)(F)C(F)(F)C(F)(F)F [I-A-Q2-267]
log P (HCOOH) (HCOOH): I-A-Q2-267: log P (HCOOH): 6.14

Nc1c(-c2ccc(Br)cc2)c(C(F)(F)F)nn1-c1ccc(C(=O)NCc2ccccn2)cc1 [I-A-Q2-191]
log P (HCOOH) (HCOOH): I-A-Q2-191: log P (HCOOH): 2.57

Cc1ccccc1-c1c(C(F)(F)F)nn(-c2ccc(-n3cncn3)c(C#N)c2)c1N [I-A-Q1-039]
log P (HCOOH) [1]: I-A-Q1-039: log P (HCOOH): 2.89

Cc1cc(-n2nc(C(F)(F)F)c(-c3cc(Cl)cc(Cl)c3)c2N)ccc1C(=O)NCC(F)(F)C(F)(F)F [I-A-Q2-269]
log P (HCOOH) (HCOOH): I-A-Q2-269: log P (HCOOH): 4.57

CNC(=O)c1ccc(-n2nc(C(F)(F)F)c(-c3ccc(Cl)c(Cl)c3)c2N)cc1 [I-A-Q2-194]
log P (HCOOH) (HCOOH): I-A-Q2-194: log P (HCOOH): 3.37

N#Cc1cc(-n2nc(C(F)(F)F)c(-c3ccc(F)c(Cl)c3)c2N)ccc1-n1cncn1 [I-A-Q1-036]
log P (HCOOH) [1]: I-A-Q1-036: log P (HCOOH): 3.24
